# Measurements: US9464972B2, “Apparatus and procedure for in vitro measurement of a substance, nicotine, released from a smokeless tobacco product” (priority 2011, dated 2016)
# Like-named read-outs stand apart in the source and are kept apart here.
# Settings: for nicotine release (accumulated, of total nicotine): artificial saliva Table 3, pH 5.8, 37° C., flow 4 ml/min
# From the text: The nicotine extraction and collection procedure include the following steps:
# 1. Add fluid (140) to the reservoir (120). Fluid (140) is artificial saliva where the extraction is nicotine from a smokeless tobacco product;
# 2. Set the bath (200) and the heating or cooling element (220) temperature control (230) to the temperature desired as established from the in vivo environment. Where the fluid (140) is artificial saliva and, for the measurement of nicotine in a smokeless tobacco product, set the temperature to 37° C.;
# 3. Start the fluid pump (180) and set the pump to the desired pump rate.
# 4. When the temperature and flow rate are stabilized, add the product sample (330) to extraction bottle interior (304) onto the screen mesh (325). Where the product sample is for a smokeless tobacco product sample (330) the product sample (330) is a smokeless tobacco sachet; the product sample (330) is placed onto the screen mesh (325) in alignment with the supply tube (310);
# 5. The fluid (140) from the supply tube (310) is flowed or dripped onto the product sample (330) producing an extract (1000) from the combination of the fluid (140) and the sample (330) which is drained from the extraction bottle (300) by a collection tube (335) and is then deposited into at least one collection bottle (400) at intervals determined by experimental design. Where the product sample (330) is a smokeless tobacco product sample (330) 1−n collection bottles (400) will used with bottles (400) changed at intervals of 1-5 min based on experimental design;
# 6. Extract the residual element from the product sample (330) by placing the product sample (330) in solvent effective for the type of product sample (330); where the product sample (330) is a smokeless tobacco product, the solvent in the preferred embodiment is 20 to 50 ml ethanol:5% NaOH mixture (9:1), and extract with ultrasound for 30 min.
# 7. Measure the target element in the extract (1000) by use of a measuring instrument suitable for the attributes of the target element in the extract (1000); for the preferred embodiment when the target element is nicotine from a smokeless tobacco product the measuring instrument is high-performance liquid chromatography (HPLC); the extract (1000) of nicotine in artificial saliva and the residual nicotine from ethanol NaOH mixture are determined using HPLC in the following conditions: • 1. Chromatograph column is a C18 reverse phase column • 2. Mobile phase is methanol and 20 mmol phosphate buffer (23:77, volume to volume) with 0.2% Triethylamine, pH=6.0 • 3. Flow rate is 1 ml/min • 4. Column temperature is 35° C.
# Artificial saliva temperature was maintained at 37° C., pump flow rate 1 ml/min. Artificial saliva was made using the formula in Table 1, with a pH of 6.7. The artificial saliva collection intervals were at 1, 2, 3, 4, 5, 6, 7, 8, 9, 10, 12, 14, 16, 18, 20, 24, 28, 32 minutes after the extraction started.
# Artificial saliva temperature was maintained at 37° C., pump flow rate 2 ml/min. Artificial saliva was made using the formula in Table 2, with a pH of 7.0. The artificial saliva collection intervals were at 1, 2, 3, 4, 5, 6, 7, 8, 9, 10, 12, 14, 16, 18, 20, 22, 24, 26, 28, 30 minutes after the extraction start.
# Artificial saliva temperature was maintained at 37° C., pump flow rate 4 ml/min. Artificial saliva was made using the formula in Table 3, with a pH of 5.8. The artificial saliva collection intervals were at 2, 4, 6, 7, 8, 10, 12, 14, 16, 18, 20, 24, 28, and 32 minutes after the extraction start.
compound,measurement,setting,value
CN1CCCC1c1cccnc1 (centres unmarked) [nicotine],nicotine collected,"Example 1: 20 to 32 min extraction period, artificial saliva Table 1, pH 6.7, 37° C., flow 1 ml/min",very little
same,"nicotine released from tobacco (accumulated, of total nicotine)","Example 1: after 20 min of extraction, artificial saliva Table 1, pH 6.7, 37° C., flow 1 ml/min",over 90%
same,average rate of nicotine release,"Example 1: first 5 minutes, artificial saliva Table 1, pH 6.7, 37° C., flow 1 ml/min, smokeless tobacco sachet",approximately 10%
same,average rate of nicotine release,"Example 1: from 6 min to 10 min, artificial saliva Table 1, pH 6.7, 37° C., flow 1 ml/min",approximately 4.3%
same,average rate of nicotine release,"Example 1: from 11 min to 20 min, artificial saliva Table 1, pH 6.7, 37° C., flow 1 ml/min",approximately 1%
same,nicotine collected,"Example 2: 20 to 30 min extraction period, artificial saliva Table 2, pH 7.0, 37° C., flow 2 ml/min",very little
same,nicotine released (of total nicotine),"Example 2: first 5 minutes, artificial saliva Table 2, pH 7.0, 37° C., flow 2 ml/min",64%
same,"nicotine released from tobacco (accumulated, of total nicotine)","Example 2: first 20 min of extraction, artificial saliva Table 2, pH 7.0, 37° C., flow 2 ml/min",over 95%
same,"nicotine released (additional, of total nicotine)","Example 2: from 6 min to 10 min, artificial saliva Table 2, pH 7.0, 37° C., flow 2 ml/min",20%
same,"nicotine release (accumulated, of total nicotine)",Example 3: first 6 min,82%
same,"nicotine release (accumulated, of total nicotine)",Example 3: first 10 min,92%
